Data on two molecules can be found in patent publication US20120231072A1, “THERMO-RESPONSIVE HYDROGEL COMPOSITIONS” (Chemisches Institut Schaefer AG, priority 2011, published 2012).

Series [1] is described as follows: Drug encapsulation efficiency in PLGA particles. The series is classed as physicochemical. Here is the method: The clear organic mixture was emulsified into an external aqueous phase (5 ml, 2% w/v PVA) with vortexing for 20 seconds followed by sonication on ice at 55 W for 5 minutes. […] Nanospheres were harvested by ultracentrifugation at 16,000 g for 10 min, after which the resultant pellet was re-suspended in DI water by sonication and washed twice with DI water. […] Dynamic light scattering (DLS) was used to characterize the size of the nanospheres. To investigate nanosphere encapsulation in thermo-responsive hydrogels, nanospheres were added into the hydrogel precursor solutions at 0, 2.5, 5, and 10 mg/ml prior to polymerization initiated by the addition of TEMED. The hydrogels were then washed 5 times with PBS every 20 minutes, as described for hydrogels with no nanospheres. Swelling ratio was tested for hydrogels with varying concentration of nanospheres at both room and body temperature.
The drug concentration was determined spectrophotometrically at 240 nm. […] The encapsulation efficiency was calculated as (actual drug loaded/total drug used)×100%.

The test system of series [2] is endotoxin-induced uveitis (EIU) animal model. As to conditions: 24 hours after intravitreal treatment; LPS alone ~45% vasodilation.
Experimental: Adult male Lewis rats (weight 310-350 g) were used as an endotoxin-induced uveitis (EIU) animal model. LPS from Salmonella Typhimurium (Sigma Aldrich, St. Louis, Mo.) was mixed with PBS immediately prior to the injection. The animals were divided as followed:
Control: intravitreal injection of LPS at day 0. ˜5 μl intravitreal injection of control gel (no dexamethasone) at 24 hrs after the LPS induction (day 1);
Treatment control: intravitreal injection of LPS at day 0. ˜5 μl intravitreal injection of dexamethasone (10 mg/ml dose, Sigma) at 24 hrs after the LPS induction;
Treatment 1: intravitreal injection of LPS at day 0. ˜5 μl intravitreal injection of dexamethasone hydrogel (10 mg/ml dose, Sigma) at 24 hrs after the LPS induction; and
Treatment 2: intravitreal injection of LPS at day 0. ˜5 μl subconjunctival injection of dexamethasone hydrogel (10 mg/ml dose, Sigma) at 24 hrs after the LPS induction.
The dexamethasone was loaded by equilibrating 0.1 ml of hydrogel in 2 ml of dexamethasone drug solution. SLO images and blood flow measurement were obtained before the LPS induction, 1, 2, 3, and 6 days after the LPS (and dexametheasone treatment). Furthermore, in one animal, the thermo-hydrogel (control) was applied directly to the cornea (simulate eyedrops).
The conditions of series [3]: cited from earlier work.

Structures can show the parent of a compound that is named as a salt. Where two headings read alike, the source gives them in different places.

On to `C[C@@H]1C[C@H]2[C@@H]3CCC4=CC(=O)C=C[C@]4(C)[C@@]3(F)[C@@H](O)C[C@]2(C)[C@@]1(O)C(=O)CO` [dexamethasone], for which the figures for the encapsulation efficiency in series [1] (dexamethasone 1:2 (w/w) of PLGA) and in series [1] (dexamethasone 1:10 (w/w) of PLGA) were 7.5% and 2.5%, respectively. Also, the “degree of dilation of retinal vessels” value in series [2] is listed as about 15%.
With `C[C@@H]1C[C@H]2[C@@H]3CCC4=CC(=O)C=C[C@]4(C)[C@@]3(F)[C@@H](O)C[C@]2(C)[C@@]1(O)C(=O)COP(=O)(O)O` [DSP, Dexamethasone 21-phosphate disodium salt], the solubility in water in series [3] is over 50 mg/mL. Moreover, the “P (oil/water)” value reads like this: (Methylene chloride + methanol / 0.2% PVA) 0.06; (Methylene chloride + methanol / 2% PVA) 0.15; (Methylene chloride + methanol / 2% PVA + 0.25N (NH4)2SO4) 0.86; (Methylene chloride + methanol / 2% PVA + 0.5N NaCl) 0.26.
